Tests used:
NCI-H716 cells = assay: cells; assay type: cell-based, Human; conditions: for hNCI-H716 GLP1 Secretion IC50/EC50: assay number 12
STC-1 cell line = assay type: cell-based, mouse; conditions: for mSTC-1 GLP1 Secretion IC50/EC50: assay number 13

Structure (SMILES)	hNCI-H716 GLP1 Secretion IC50/EC50 (NCI-H716 cells)	mSTC-1 GLP1 Secretion IC50/EC50 (STC-1 cell line)	IC50/EC50, hNCI-H716 GLP1 Secretion (assay number 12) (NCI-H716 cells; concentration response)	IC50/EC50, mSTC-1 GLP1 Secretion (assay number 13) (STC-1 cell line; concentration response)
CC1=C(C(=O)O)N2C(=O)[C@@H](NC(=O)[C@H](N)c3ccccc3)[C@H]2SC1 [NCGC00159522-05]	> 40 µM	> 40 µM		
Cc1c(C)n(CCN(C)C)c2ccc(C(=O)OCCN(C)C)cc12 [NCGC00164483-03]	> 40 µM	1.1962 µM		
CC(=O)OC(C)C[N+](C)(C)C.[Cl-] (stereo not shown) [NCGC00015045-09]	> 40 µM	> 40 µM		
CC(C)(O)c1ccccc1CC[C@@H](SCC1(CC(=O)[O-])CC1)c1cccc(/C=C/c2ccc3ccc(Cl)cc3n2)c1.[Na+] [NCGC00164568-04]	20.7101 µM	> 40 µM		
CCCCCCCCCCCCOCCOCCOCCOCCOCCOCCOCCOCCOCCO [NCGC00166290-03]	> 40 µM	30.3683 µM		
COc1cc(Nc2c(C#N)cnc3cc(OCCCN4CCN(C)CC4)c(OC)cc23)c(Cl)cc1Cl [NCGC00241107-02]	25.1177 µM	> 40 µM		
NC[C@@H]1O[C@H](O[C@H]2[C@@H](O)[C@H](O[C@@H]3[C@@H](O)[C@H](N)C[C@H](N)[C@H]3O[C@H]3O[C@H](CN)[C@@H](O)[C@H](O)[C@H]3N)O[C@@H]2CO)[C@H](N)[C@@H](O)[C@@H]1O [NCGC00179612-03]			> 40 µM	> 40 µM
C#C[C@]1(O)CC[C@H]2[C@@H]3CCC4=CCCC[C@@H]4[C@H]3CC[C@@]21C [NCGC00179676-03]	27.5211 µM	> 40 µM		
